Laboratory results taken from US9930892B2, “Molecules having pesticidal utility, and intermediates, compositions, and processes, related thereto” (Dow AgroSciences LLC, priority 2016, dated 2018).

Tests used:
Format in all cases: in vivo
[1] = system: Cabbage Looper (Trichoplusia ni); experiment: Bioassay on Cabbage Looper (CL), 128-well diet tray assay; settings: 50 μg/cm^2 on artificial diet, second instar larvae, five to seven days, 25° C.
Method: Bioassays on CL were conducted using a 128-well diet tray assay. One to five second instar CL larvae were placed in each well (3 mL) of the diet tray that had been previously filled with 1 mL of artificial diet to which 50 μg/cm^2 of the test molecule (dissolved in 50 μL of 90:10 acetone-water mixture) had been applied (to each of eight wells) and then allowed to dry. Trays were covered with a clear self-adhesive cover and held at 25° C., 14:10 light-dark for five to seven days. Percent mortality was recorded for the larvae in each well; activity in the eight wells was then averaged. The results are indicated in the table entitled “Table ABC: Biological Results” (See Table Section).
(§1) Bioassays on BAW and CL were conducted according to the procedures outlined in Example A: Bioassays on Beet Armyworm (“BAW”) and Cabbage Looper (“CL”) using the indicated concentrations.

[2] = system: Beet Armyworm (Spodoptera exigua); experiment: Bioassay on Beet Armyworm (BAW), 128-well diet tray assay; settings: 50 μg/cm^2 on artificial diet, second instar larvae, five to seven days, 25° C.
Method: Bioassays on BAW were conducted using a 128-well diet tray assay. One to five second instar BAW larvae were placed in each well (3 mL) of the diet tray that had been previously filled with 1 mL of artificial diet to which 50 μg/cm^2 of the test molecule (dissolved in 50 μL of 90:10 acetone-water mixture) had been applied (to each of eight wells) and then allowed to dry. Trays were covered with a clear self-adhesive cover and held at 25° C., 14:10 light-dark for five to seven days. Percent mortality was recorded for the larvae in each well; activity in the eight wells was then averaged. The results are indicated in the table entitled “Table ABC: Biological Results” (See Table Section).
as §1

[3] = system: Yellow Fever Mosquito (Aedes aegypti); settings: 4000 ppm master plate solution diluted, about 1 day-old larvae, scored on mortality after 3 days
Method: Master plates containing 400 μg of a molecule dissolved in 100 μL of dimethyl sulfoxide (DMSO) (equivalent to a 4000 ppm solution) are used. A master plate of assembled molecules contains 15 μL per well. To this plate, 135 μL of a 90:10 water:acetone mixture is added to each well. A robot (Biomek® NXP Laboratory Automation Workstation) is programmed to dispense 15 μL aspirations from the master plate into an empty 96-well shallow plate (“daughter” plate). There are 6 reps (“daughter” plates) created per master. The created daughter plates are then immediately infested with YFM larvae.
The day before plates are to be treated, mosquito eggs are placed in Millipore water containing liver powder to begin hatching (4 g. into 400 mL). After the daughter plates are created using the robot, they are infested with 220 μL of the liver powder/larval mosquito mixture (about 1 day-old larvae). After plates are infested with mosquito larvae, a non-evaporative lid is used to cover the plate to reduce drying. Plates are held at room temperature for 3 days prior to grading. After 3 days, each well is observed and scored based on mortality. The results are indicated in the table entitled “Table ABC: Biological Results” (See Table Section).

Structure (SMILES)	CL % Control (or Mortality) rating [1]	BAW % Control (or Mortality) rating [2]	YFM % Control (or Mortality) rating [3]
O=C(CCC(F)(F)F)NNC(=O)c1ccc(/C(F)=C/C(c2cc(Br)c(Cl)c(Br)c2)C(F)(F)F)cc1C(F)(F)F (centres unmarked) [F5, (Z)-4-(3-(3,5-dibromo-4-chlorophenyl)-1,4,4,4-tetrafluorobut-1-en-1-yl)-N′-(4,4,4-trifluorobutanoyl)-2-(trifluoromethyl)benzohydrazide]	A (50-100)	A (50-100)	A (80-100)
O=C(CCC(F)(F)F)NNC(=O)c1ccc(/C(F)=C/C(c2cc(Cl)cc(Cl)c2)C(F)(F)F)cc1C(F)(F)F (centres unmarked) [F6, (Z)-4-(3-(3,5-Dichlorophenyl)-1,4,4,4-tetrafluorobut-1-en-1-yl)-N′-(4,4,4-trifluorobutanoyl)-2-(trifluoromethyl)benzohydrazide]	A (50-100)	A (50-100)	A (80-100)
O=C(CCC(F)(F)F)NNC(=O)c1ccc(/C(F)=C/C(c2ccc(Cl)c(Cl)c2)C(F)(F)F)cc1C(F)(F)F (centres unmarked) [F7, (Z)-4-(3-(3,4-Dichlorophenyl)-1,4,4,4-tetrafluorobut-1-en-1-yl)-N′-(4,4,4-trifluorobutanoyl)-2-(trifluoromethyl)benzohydrazide]	A (50-100)	A (50-100)	A (80-100)
CN(NC(=O)c1ccc(/C(F)=C/C(c2cc(Cl)cc(Cl)c2)C(F)(F)F)cc1C(F)(F)F)C(=O)NCC(F)(F)F (centres unmarked) [F8, (Z)-2-(4-(3-(3,5-Dichlorophenyl)-1,4,4,4-tetrafluorobut-1-en-1-yl)-2-(trifluoromethyl)benzoyl)-1-methyl-N-(2,2,2-trifluoroethyl) hydrazinecarboxamide]	A (50-100)	A (50-100)	A (80-100)
O=C(CCC(F)(F)F)NNC(=O)c1ccc(/C(F)=C/C(c2cc(Br)cc(Br)c2)C(F)(F)F)cc1C(F)(F)F (centres unmarked) [F9, (Z)-4-(3-(3,5-Dibromophenyl)-1,4,4,4-tetrafluorobut-1-en-1-yl)-N′-(4,4,4-trifluorobutanoyl)-2-(trifluoromethyl)benzohydrazide]	A (50-100)	A (50-100)	A (80-100)
O=C(CCC(F)(F)F)NNC(=O)c1ccc(/C(F)=C/C(c2cc(Cl)c(F)c(Cl)c2)C(F)(F)F)cc1C(F)(F)F (centres unmarked) [F10, (Z)-4-(3-(3,5-Dichloro-4-fluorophenyl)-1,4,4,4-tetrafluorobut-1-en-1-yl)-N′-(4,4,4-trifluorobutanoyl)-2-(trifluoromethyl)benzohydrazide]	A (50-100)	A (50-100)	A (80-100)
CN(NC(=O)c1ccc(/C(F)=C/C(c2cc(Br)cc(Br)c2)C(F)(F)F)cc1C(F)(F)F)C(=O)NCC(F)(F)F (centres unmarked) [F14, (Z)-2-(4-(3-(3,5-dibromophenyl)-1,4,4,4-tetrafluorobut-1-en-1-yl)-2-(trifluoromethyl)benzoyl)-1-methyl-N-(2,2,2-trifluoroethyl)hydrazinecarboxamide]	A (50-100)	A (50-100)	A (80-100)
CN(NC(=O)c1ccc(/C(F)=C/C(c2ccc(Cl)c(Cl)c2)C(F)(F)F)cc1C(F)(F)F)C(=O)NCC(F)(F)F (centres unmarked) [F15]	A (50-100)	A (50-100)	A (80-100)
Cc1cc(C(/C=C(\F)c2ccc(C(=O)NN(C)C(=O)NCC(F)(F)F)c(C(F)(F)F)c2)C(F)(F)F)cc(C)c1Cl (centres unmarked) [F16, (Z)-2-(4-(3-(4-Chloro-3,5-dimethylphenyl)-1,4,4,4-tetrafluorobut-1-en-1-yl)-2-(trifluoromethyl)benzoyl)-1-methyl-N-(2,2,2-trifluoroethyl)hydrazinecarboxamide]	A (50-100)	A (50-100)	A (80-100)
CN(NC(=O)c1ccc(/C(F)=C/C(c2cc(Cl)c(F)c(Cl)c2)C(F)(F)F)cc1C(F)(F)F)C(=O)NCC(F)(F)F (centres unmarked) [F22, (Z)-2-(4-(3-(3,5-Dichloro-4-fluorophenyl)-1,4,4,4-tetrafluorobut-1-en-1-yl)-2-(trifluoromethyl)benzoyl)-1-methyl-N-(2,2,2-trifluoroethyl)hydrazinecarboxamide]	A (50-100)	A (50-100)	A (80-100)
CN(NC(=O)c1ccc(/C(F)=C/C(c2cc(Cl)cc(Br)c2)C(F)(F)F)cc1C(F)(F)F)C(=O)NCC(F)(F)F (centres unmarked) [F25, (Z)-2-(4-(3-(3-Bromo-5-chlorophenyl)-1,4,4,4-tetrafluorobut-1-en-1-yl)-2-(trifluoromethyl)benzoyl)-1-methyl-N-(2,2,2-trifluoroethyl)hydrazinecarboxamide]	A (50-100)	A (50-100)	A (80-100)
CN(NC(=O)c1ccc(/C(F)=C/C(c2ccc(Br)c(Br)c2)C(F)(F)F)cc1C(F)(F)F)C(=O)NCC(F)(F)F (centres unmarked) [F26, (Z)-2-(4-(3-(3,4-Dibromophenyl)-1,4,4,4-tetrafluorobut-1-en-1-yl)-2-(trifluoromethyl)benzoyl)-1-methyl-N-(2,2,2-trifluoroethyl)hydrazinecarboxamide]	B (More than 0-Less than 50)	B (More than 0-Less than 50)	A (80-100)
O=C(CCC(F)(F)F)NNC(=O)c1ccc(/C(F)=C/C(c2cc(Cl)c(Br)c(Cl)c2)C(F)(F)F)cc1C(F)(F)F (centres unmarked) [F27, (Z)-4-(3-(4-Bromo-3,5-dichlorophenyl)-1,4,4,4-tetrafluorobut-1-en-1-yl)-N′-(4,4,4-trifluorobutanoyl)-2-(trifluoromethyl)benzohydrazide]	A (50-100)	A (50-100)	A (80-100)
Cc1cc(C(/C=C(\F)c2ccc(C(=O)NN(C)C(=O)NCC(F)(F)F)c(C(F)(F)F)c2)C(F)(F)F)cc(Cl)c1Cl (centres unmarked) [F30, (Z)-2-(4-(3-(3,4-Dichloro-5-methylphenyl)-1,4,4,4-tetrafluorobut-1-en-1-yl)-2-(trifluoromethyl)benzoyl)-1-methyl-N-(2,2,2-trifluoroethyl)hydrazine-1-carboxamide]	A (50-100)	A (50-100)	D (No activity noticed in this bioassay)
CN(NC(=O)c1ccc(/C(F)=C/C(c2cc(Cl)cc(C(F)(F)F)c2)C(F)(F)F)cc1C(F)(F)F)C(=O)NCC(F)(F)F (centres unmarked) [PF9, (Z)-2-(4-(3-(3-Chloro-5-(trifluoromethyl)phenyl)-1,4,4,4-tetrafluorobut-1-en-1-yl)-2-(trifluoromethyl)benzoyl)-1-methyl-N-(2,2,2-trifluoroethyl)hydrazine-1-carboxamide]	A (50-100)	A (50-100)	–
